We go through six molecules from article PMC2639639, “Identification of Three Classes of Heteroaromatic Compounds with Activity against Intracellular Trypanosoma cruzi by Chemical Library Screening” (PLoS Neglected Tropical Diseases, 2009).

In data set [1] the test system is T. cruzi (Tulahuen strain) expressing β-galactosidase. Description: T. cruzi growth inhibition assay (β-gal activity, infection of NIH/3T3 cells). The note with it: Trypanosoma cruzi, TULAHUEN, NIH3T3, 96 h, 4 days. Format: cell-based, Trypanosoma cruzi. As for the experimental part: NIH/3T3 cells and parasites were harvested, washed once and resuspended in DMEM supplemented with 2% FBS and Pen-Strep-Glut. […] Different numbers of NIH/3T3 cells were seeded in 96-well plates. After 3 h, compounds were added at the indicated concentrations and mixed by pipetting. BZN tablets (Rochagan, Roche) dissolved in DMSO and 4 µM Amphotericin B solution (Sigma-Aldrich) were used as positive controls. Different numbers of T. cruzi parasites were added in a final volume of 200 µl/well. After 4 days, 50 µl of PBS containing 0.5% of the detergent NP40 and 100 µM Chlorophenol Red-β-D-galactoside (CPRG) (Fluka) were added. Plates were incubated at 37°C for 4 h and absorbance was read at 590 nm using a Tecan Spectra Mini plate reader.
To calculate the Z′ factor, we used the formula described by Zhang et al.: Z′ = 1−[(3σc++3σc−) / |μc+−μc−|] where σc+ = standard deviation (SD) of positive control, σc− = SD of negative control, μc+ = mean of positive control, μc− = mean of negative control. Subsequently, the best ratio was used for all growth inhibition assays (50.000 cells and parasites, multiplicity of infection (MOI) 1∶1).
To determine IC50 values, β-gal activity (Abs590) was plotted against compound concentration for each compound. The IC50 was determined as the concentration at which the activity (absorbance) was half that in the absence of compound. Mean IC50 values are the average of independent experiments performed in triplicate on three different days.

The subject of the next data set is NIH/3T3 cells. Description: Cytotoxicity assay (Alamar Blue) on NIH/3T3 cells. The class given is cell-based. The note with it: 4 days. Here is the method: (§1) Cells (NIH/3T3 or HepG2) were washed and plated at a density of 50,000 cells/well of 96-well plates in 200 µl and allowed to adhere for 3 h. Twenty-four hour assays were done in DMEM without phenol red supplemented with 10% FBS and Pen-Strep-Glut, while 4-day assays were done in the same medium containing 2% FBS. Drugs were added and mixed. After 1 or 4 days, 20 µl of Alamar Blue (Biosource, Invitrogen) was added. Plates were incubated for 4 h (HepG2) or 6 h (NIH/3T3) at 37°C and fluorescence was read using a Labsystems Fluoroskan II plate reader (excitation: 544 nm, emission: 590 nm) .
(§2) To determine TC50 values, fluorescence was plotted against inhibitor concentration. TC50 was determined as the concentration at which cytotoxicity (fluorescence) was half that in the absence of inhibitor.
Background: Resazurin is reduced to fluorescent resorufin, in cell work by metabolically active cells.

In another data set the test system is HepG2 cells. In words: Cytotoxicity assay (Alamar Blue) on HepG2 cells. Format: cell-based, human. Here is the method:
as §1, §2

Data set [2] concerns Free trypomastigotes (β-gal T. cruzi). Description: T. cruzi lysis assay. The class given is cell-based. The note with it: Trypanosoma cruzi; lysis assay, 100,000 parasites, 24 h. As for the experimental part:
Trypomastigotes were rinsed once and plated in 96-well plates at 100,000/well with the compounds in a final volume of 200 µl of DMEM without phenol red supplemented with 2% FBS, Pen-Strep-Glut and 100 µM CPRG. Plates were incubated for 24 h at 37°C and absorbance was read at 590 nm.

The subject of a further data set is L. major. In words: Leishmania growth inhibition assay in bone marrow-derived macrophages (L. major). The class given is cell-based. The note with it: 5 days; for Reduction in parasite burden, L. major: 2 µM, added 2 h post-infection of macrophages; for IC50: Leishmania major, Macrophage, 120 h, macrophages, read-out: estimated IC50 against intracellular L. major. As for the experimental part:
(§3) Adherent bone marrow-derived macrophages were harvested in cold DMEM+0.5 mM EDTA and seeded into an 8-well Lab-Tek II chambered coverglass (Nalge Nunc International, Naperville, IL) at a concentration of 50,000 cells/chamber 24 h before being used for infections.
(§4) L. major and L. amazonensis parasites were opsonized for 30 min by incubation in DMEM containing 4% BALB/c serum and then allowed to invade macrophages in 200 µl DMEM supplemented with 10% FBS and Pen-Strep-Glut, at a MOI of 3 parasites per macrophage for 2 h at 33°C (5% CO2, 95% air humidity),[17]. Thereafter, non-phagocytosed parasites were washed off, and the cultures were further incubated in 300 µl of medium in the presence or the absence of drugs at the indicated concentration for 3 days for L. amazonensis and 5 days for L. major. Medium was changed and drugs were added again at the same concentration on day 2 post-infection. Intracellular parasites were assessed after staining with DAPI (3 µM) by fluorescence microscopy. The total number of amastigotes/500 macrophages was counted in each well. Kruskal-Wallis test was used to analyze the data, followed by a Dunn's post-comparison test.

In another data set the test system is L. amazonensis. In words: Leishmania growth inhibition assay in bone marrow-derived macrophages (L. amazonensis). The class given is cell-based. The note with it: 3 days; for Reduction in parasite burden, L. amazonensis: 2 µM, added 2 h post-infection of macrophages; for IC50: Leishmania amazonensis, Macrophage, 72 h, macrophages, read-out: estimated IC50 against intracellular L. amazonensis. Here is the method:
as §3, §4

The subject of data set [3] is intracellularly growing T. cruzi amastigotes. In words: Development assay with immunofluorescence (intracellular amastigotes, Tulahuen β-gal strain). The class given is cell-based, Trypanosoma cruzi. The note with it: for Number of parasites per infected cell (intracellular replication) / Morphology of intracellularly growing T. cruzi: added after 2 h infection; for Number of parasites per infected cell (intracellular replication): 2 days; for Morphology of intracellularly growing T. cruzi: fixed after 2 or 3 days, PCH1 100 nM, NT1 400 nM, CX1 90 nM. As for the experimental part: (§5) Fifty thousand NIH/3T3 cells were seeded on sterile glass coverslips in 12-well plates and allowed to adhere overnight. Five million parasites were added (MOI 100∶1) and allowed to infect for 2 h in DMEM+2% FBS and Pen-Strep-Glut. Parasites were rinsed out three times with PBS. Infected cells were further incubated and fixed for 15 min with 4% paraformaldehyde at the times indicated.
(§6) Fixed cells on coverslips were rinsed with PBS, permeabilized for 15 min in PBS with 0.1% Triton X-100 (Sigma-Aldrich). After blocking for 20 min in PBS with 10% goat serum, 1% bovine serum albumin, 100 mM glycine and 0.05% sodium azide, cells were incubated for 1 h at room temperature with a polyclonal rabbit anti-T. cruzi (gift from Dr B. Burleigh, Harvard School of Public Health, Boston, MA) at 1∶2000 dilution. After rinsing, an Alexa Fluor® 488 goat anti-rabbit IgG secondary antibody (Molecular Probes, Invitrogen) was added for 1 h at a 1∶800 dilution. DNA was stained with DAPI and coverslips were mounted on Mowiol. To determine the number of parasites per infected cell, between 200 and 300 infected cells per coverslip were scored in triplicate samples using an inverted Olympus IX70 microscope with a 60× oil objective. Data are presented as mean±standard deviation. Images were taken with the same microscope.

In a further data set the test system is T. cruzi Y strain. Description: Development assay with immunofluorescence (Y strain). Format: cell-based, Trypanosoma cruzi. The note with it: added after 2 h infection, 2 days. Here is the method: as §5, §6
A further data set has as its system T. cruzi. The note with it: cited from earlier work.
In another data set the test system is Leishmania. Further details: method as in PMID 15891135. The note with it: read-out: IC50 (Leishmania positive control); cited from earlier work.
A further data set relates to mammalian cells. In words: Cytotoxicity on mammalian cells (cell type not given). Format: cell-based. The note with it: type of mammalian cells and duration not specified at the place. As for the experimental part:
as §1, §2

Where [4] appears, read: β-gal T. cruzi Tulahuen, 50.000 NIH/3T3 cells and parasites (MOI 1:1), read-out: IC50 Intracellular growth.

Structures are written as SMILES. Entries after “also recorded” stand apart in the source; their conditions may differ. Where two headings read alike, the source gives them in different places.

By IC50 is commonly meant the point on the concentration scale where inhibition reaches its midpoint. Consider `O=C(Cn1cnc([N+](=O)[O-])n1)Nc1cc(Oc2cccc(C(F)(F)F)c2)cc([N+](=O)[O-])c1` [NT1, 2-(3-nitro-1H-1,2,4-triazol-1-yl)-N-{3-nitro-5-[3-(trifluoromethyl)phenoxy]phenyl}acetamide], for which the half-maximal inhibitory concentration (IC50) in data set [1] (setting [4]) is 190 ± 40 nM. Besides, the “TC50 NIH/3T3 cells at 4 days” value in the data set with NIH/3T3 cells is 14000 ± 6000 nM. In the data set with HepG2 cells, the “TC50 HepG2 cells at 24 h” value was 30000 ± 10000 nM and the “TC50 HepG2 cells at 4 days” value was 7600 ± 300 nM. Moreover, the IC50 in data set [2] is 6800 ± 900 nM. In the data set with L. major, the “Reduction in parasite burden, L. major” value is approximately 80% and the IC50 was approximately 500 nM. Besides, in the data set on L. amazonensis, the “Reduction in parasite burden, L. amazonensis” value (from here on “Reduction … L. amazonensis”) turned out to be 50% and the IC50 is approximately 500 nM. Also, in data set [3], the “Phenotype of intracellular T. cruzi, compounds added 2 days after infection” value (shortened to “Phenotype of intracellular T. cruzi”) was “had a trypanostatic effect”; the “Number of parasites per infected cell (intracellular replication)” value was “induced a growth arrest of intracellular T. cruzi”; the “Morphology of intracellularly growing T. cruzi” value (“Morphology” for short) is “inhibited replication of parasites without altering their overall morphology”. For the same molecule, the “Effect on intracellular T. cruzi Y strain” value (shortened to “Effect”) in the data set on T. cruzi Y strain is listed as “inhibit intracellular replication of T. cruzi Y strain; also recorded: displayed activity on the Y strain, but at higher concentrations”.

`OC(Cn1cncn1)(Cn1cncn1)c1ccc(F)cc1F` [Fluconazole, fluconazole]: the IC50 in the data set with T. cruzi (read-out: IC50 against T. cruzi in vitro) is 8000 nM.

Turning to `C[C@@H]1[C@H](O)[C@@H](C)/C=C/C=C/C=C/C=C/C=C/C=C/C=C/[C@H](O[C@@H]2O[C@H](C)[C@@H](O)[C@H](N)[C@@H]2O)C[C@@H]2O[C@](O)(C[C@@H](O)C[C@@H](O)[C@H](O)CC[C@@H](O)C[C@@H](O)CC(=O)O[C@H]1C)C[C@H](O)[C@H]2C(=O)O` [Amphotericin B], the half-maximal inhibitory concentration (IC50) with Leishmania was 100 nM.

On to `O=C(NN=Cc1ccc(-c2cccc(Cl)c2Cl)o1)c1ccccn1` [PCH1, N′-{[5-(2,3-dichlorophenyl)-2-furyl]methylene}-2-pyridinecarbohydrazide], for which the IC50 in data set [1] (setting [4]) is 54 ± 10 nM. Moreover, the “TC50 NIH/3T3 cells at 4 days” value in the data set on NIH/3T3 cells is more than 300000 nM. Besides, in the data set with HepG2 cells, the “TC50 HepG2 cells at 24 h” value was more than 300000 nM and the “TC50 HepG2 cells at 4 days” value was 66000 ± 7000 nM. The same molecule came in with an IC50 in [2] of 240000 ± 60000 nM. Besides, in the data set with L. major, the “Reduction in parasite burden, L. major” value was “about 50%” and the 50% inhibitory concentration (IC50) is approximately 2000 nM. Also, in the data set with L. amazonensis, the “Reduction … L. amazonensis” value is recorded as 70% and the IC50 is approximately 100 nM. In [3], the “Phenotype of intracellular T. cruzi” value was “induced major defects in cell division at the IC100 and parasite lysis at higher doses”; the “Number of parasites per infected cell (intracellular replication)” value is given as “induced a growth arrest of intracellular T. cruzi”; the “Morphology” value was “larger amastigotes containing multiple disorganized nuclei and kinetoplasts were observed”. Besides, the “Effect” value with T. cruzi Y strain was “inhibit intracellular replication of T. cruzi Y strain”.

For the molecule `Cc1cc(OCCCCCCn2ccnc2)cc(C)c1Cl` [CX1, 1-[6-(4-chloro-3,5-dimethylphenoxy)hexyl]-1H-imidazole], in data set [1] (setting [4]), the half-maximal inhibitory concentration (IC50) stood at 23 ± 7 nM. Also, the “TC50 NIH/3T3 cells at 4 days” value in the data set with NIH/3T3 cells stood at 16000 ± 6000 nM. Also, in the data set with HepG2 cells, the “TC50 HepG2 cells at 24 h” value turned out to be 57000 ± 8000 nM and the “TC50 HepG2 cells at 4 days” value came out at 12000 ± 4000 nM. In [2], this molecule yielded an IC50 of 13500 ± 1000 nM. Further, in the data set on L. major, the “Reduction in parasite burden, L. major” value is approximately 70% and the IC50 is approximately 500 nM. For the same molecule, in the data set with L. amazonensis, the “Reduction … L. amazonensis” value came out at 70% and the IC50 is approximately 500 nM. In addition, in data set [3], the “Phenotype of intracellular T. cruzi” value is “induced parasite lysis and host cell apoptosis in concentrations as low as 90 nM”; the “Morphology” value was “displayed pycnotic nuclei (star) and debris of parasites protein and DNA throughout the cytoplasm”. Moreover, in the data set with T. cruzi Y strain, the “Effect” value is reported as “induced parasite lysis with morphological changes; also recorded: dose effect on the Y strain of T. cruzi was similar to the β-gal-expressing Tulahuen strain”. For the same molecule, the “Toxicity (TC50) versus anti-trypanosomal activity (IC50)” value with mammalian cells is recorded as “over 500 fold”.

Consider `O=C(Cn1ccnc1[N+](=O)[O-])NCc1ccccc1` [BZN, benznidazole, reference compound], for which the IC50 is 1150 nM in data set [1] (β-gal T. cruzi Tulahuen in NIH/3T3 cells, read-out: IC50 T. cruzi growth inhibition) and 1500 nM in the data set with T. cruzi (read-out: IC50 against T. cruzi (reported)).
